Test results taken from the supplement of paper PMC10307832.

Tests used:
Test in all cases: relative viability (nuclei count vs DMSO), 5 days (fraction); higher = more cells survive
Afatinib + Luminespib = compound: CN(C)C/C=C/C(=O)Nc1cc2c(Nc3ccc(F)c(Cl)c3)ncnc2cc1O[C@H]1CCOC1 [Afatinib] + CCNC(=O)c1noc(-c2cc(C(C)C)c(O)cc2O)c1-c1ccc(CN2CCOCC2)cc1 [Luminespib] (partner 0.01 µM)
Summary of the method: (§1)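 Each reported value is a median over duplicate plates. It expresses relative viability: treated-well nuclei count divided by vehicle-well nuclei count. Lung cancer cell lines in 1536-well plates were dosed by pin tool a day after seeding, alone with one drug or with a fixed anchor-drug dose plus five library-drug doses (not always all listed) in √10 steps, and nuclei were counted after 5 days.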

Afatinib + Bortezomib = compound: CN(C)C/C=C/C(=O)Nc1cc2c(Nc3ccc(F)c(Cl)c3)ncnc2cc1O[C@H]1CCOC1 [Afatinib] + CC(C)C[C@H](NC(=O)[C@H](Cc1ccccc1)NC(=O)c1cnccn1)B(O)O [Bortezomib] (partner 0.002 µM)
Summary of the method: as §1

Afatinib + Navitoclax = compound: CN(C)C/C=C/C(=O)Nc1cc2c(Nc3ccc(F)c(Cl)c3)ncnc2cc1O[C@H]1CCOC1 [Afatinib] + CC1(C)CCC(c2ccc(Cl)cc2)=C(CN2CCN(c3ccc(C(=O)NS(=O)(=O)c4ccc(N[C@H](CCN5CCOCC5)CSc5ccccc5)c(S(=O)(=O)C(F)(F)F)c4)cc3)CC2)C1 [Navitoclax] (partner 0.5 µM)
Summary of the method: as §1

Afatinib + Dasatinib = compound: CN(C)C/C=C/C(=O)Nc1cc2c(Nc3ccc(F)c(Cl)c3)ncnc2cc1O[C@H]1CCOC1 [Afatinib] + Cc1nc(Nc2ncc(C(=O)Nc3c(C)cccc3Cl)s2)cc(N2CCN(CCO)CC2)n1 [Dasatinib] (partner 0.075 µM)
Summary of the method: as §1

| Cell Line | relative viability (Afatinib + Luminespib; first compound 0.005 µM) | relative viability (Afatinib + Luminespib; first compound 0.01581 µM) | relative viability (Afatinib + Luminespib; first compound 0.05 µM) | relative viability (Afatinib + Luminespib; first compound 0.1581 µM) | relative viability (Afatinib + Luminespib; first compound 0.5 µM) | relative viability (Afatinib + Bortezomib; first compound 0.005 µM) | relative viability (Afatinib + Bortezomib; first compound 0.01581 µM) | relative viability (Afatinib + Bortezomib; first compound 0.05 µM) | relative viability (Afatinib + Bortezomib; first compound 0.1581 µM) | relative viability (Afatinib + Bortezomib; first compound 0.5 µM) | relative viability (Afatinib + Navitoclax; first compound 0.005 µM) | relative viability (Afatinib + Navitoclax; first compound 0.01581 µM) | relative viability (Afatinib + Navitoclax; first compound 0.05 µM) | relative viability (Afatinib + Navitoclax; first compound 0.1581 µM) | relative viability (Afatinib + Navitoclax; first compound 0.5 µM) | relative viability (Afatinib + Dasatinib; first compound 0.005 µM) | relative viability (Afatinib + Dasatinib; first compound 0.01581 µM) | relative viability (Afatinib + Dasatinib; first compound 0.05 µM) | relative viability (Afatinib + Dasatinib; first compound 0.1581 µM) | relative viability (Afatinib + Dasatinib; first compound 0.5 µM) |
| --- | --- | --- | --- | --- | --- | --- | --- | --- | --- | --- | --- | --- | --- | --- | --- | --- | --- | --- | --- | --- |
| PC-3 [JPC-3] | 0.54 | 0.402 | 0.445 | 0.277 | 0.415 | 0.516 | 0.351 | 0.315 | 0.406 | 0.303 | 0.398 | 0.345 | 0.341 | 0.324 | 0.32 | 0.46 | 0.339 | 0.286 | 0.25 | 0.33 |
| PC-14 | 0.152 | 0.115 | 0.19 | 0.126 | 0.144 | 0.303 | 0.256 | 0.268 | 0.222 | 0.249 | 0.377 | 0.334 | 0.372 | 0.334 | 0.349 | 0.0312 | 0.0316 | 0.0366 | 0.0312 | 0.0453 |
| RERF-LC-KJ | 1.19 | 1.11 | 1.19 | 1.1 | 1.08 | 1.01 | 1.16 | 0.901 | 0.818 | 0.793 | 0.786 | 0.766 | 0.874 | – | 0.751 | 0.663 | 0.662 | 0.736 | 0.61 | 0.616 |
| SK-LU-1 | 0.19 | 0.206 | 0.233 | 0.193 | 0.193 | 1.07 | 1.28 | 1.33 | 1.28 | 1.09 | 0.98 | 0.719 | 0.757 | 0.861 | 0.842 | 0.179 | 0.203 | 0.211 | 0.175 | 0.222 |
| SW 1573 | 0.141 | 0.262 | 0.247 | 0.214 | 0.214 | 1.12 | 1.07 | 1.05 | 0.98 | 1.1 | 0.878 | 1.08 | 1.13 | 0.819 | 0.943 | 0.355 | 0.438 | 0.528 | 0.475 | 0.417 |
| UMC-11 | 1.03 | 1.08 | 1.06 | 1.01 | 0.944 | 0.998 | 0.735 | 0.667 | 0.669 | 0.777 | 0.361 | 0.305 | 0.294 | 0.296 | 0.293 | 0.657 | 0.439 | 0.436 | 0.419 | 0.419 |
